From publication PMC9231160, “Monoterpenoid Glycosides from the Leaves of Ligustrum robustum and Their Bioactivities” (Molecules, 2022)
“Also recorded” adds a separate entry of the source.

Columns and labels:
[1] = DPPH radical scavenging assay; conditions: mean ± SD (n = 3), NA = no activity
Method: Statistical analyses were carried out on GraphPad Prism 5.01. All samples were measured in triplicate. The IC50 (the final concentration of sample needed to inhibit 50% of enzyme activity or scavenge 50% of free radical) was obtained by plotting the inhibition or scavenging percentage of each sample against its concentration. The results are reported as mean ± standard deviation (SD). Differences of means between groups were analyzed by one-way analysis of variance (ANOVA) on statistical package SPSS 13.0. The differences between groups were believed to be significant when p < 0.05.
(§1) S1.3. Determination of α-amylase inhibitory activity.
Phosphate buffer (20 mM, pH 6.9, containing 6 mM NaCl) was used as the solvent in this assay. Sample solution (50 μL, 50-1500 μM) and starch solution (50 μL, 1%, w/v) were mixed and incubated in a 96-well microplate at 37 °C for 10 min.
Then, α-amylase solution (50 μL, 0.2 U/mL) was added and the mixture was incubated at 37 °C for an additional 10 min. […] When the reaction solution cooled to room temperature, all samples were diluted by adding distilled water (50 μL), and then their absorbance was measured using a microplate reader at 540 nm. All samples had little background absorbance (phosphate buffer instead of starch solution) at 540 nm, thus the inhibitory activity was calculated as (Acontrol - Asample)/Acontrol × 100%, in which Asample was the absorbance of the sample and Acontrol was the absorbance of the phosphate buffer control without test samples. […]
The DPPH radical scavenging assay was used to evaluate the antioxidant activity of compounds 1-11. […] The absorbance of the reaction mixture was measured at 517 nm using a microplate reader. The DPPH scavenging activity was calculated by the following formula: DPPH scavenging activity (%) = (Acontrol - Asample)/Acontrol × 100%, where Acontrol was the absorbance of ethanol control without samples, Asample was the absorbance of sample. […]

[2] = ABTS radical scavenging assay; conditions: mean ± SD (n = 3)
Method: All samples were measured in triplicate. […] Differences of means between groups were analyzed by one-way analysis of variance (ANOVA) on statistical package SPSS 13.0. The differences between groups were believed to be significant when p < 0.05. […]
(§2) S1.4. DPPH radical scavenging assay […]
S1.5. ABTS radical scavenging assay
The ABTS radical scavenging assay was used also to evaluate the antioxidant
The ABTS free radical cation (ABTS•+ ) was
manufactured by reacting ABTS stock solution (7 mM) with potassium persulphate

[3] = target: T1, fatty acid synthase (FAS) (Gallus gallus, UniProt P12276); assay: FAS inhibitory activity; format: biochemical, chicken; conditions: for IC50: FAS isolated from chicken liver, mean ± SD (n = 3), NA = no activity; for FAS inhibitory activity (in words): qualitative statement
T1 construct: isolated from chicken liver and kept in ice-bath; from tissue; host or cells: chicken liver
Method: (§3) All samples were measured in triplicate. […] Differences of means between groups were analyzed by one-way analysis of variance (ANOVA) on statistical package SPSS 13.0. The differences between groups were believed to be significant when p < 0.05.
S1. Determination of bioactivities.
S1.1. Determination of FAS inhibitory activity. […]
diluted with potassium phosphate buffer (0.1 M, pH 7.0). Sample solution (100 μL, 20-2000 μM, 37 °C) and FAS substrates (1.8 mL, 37 °C) were mixed in a cuvette, and then FAS solution (100 μL, 37 °C, isolated from chicken liver and kept in ice-bath before use) was added. The absorbance of reaction mixture was monitored by a UV-vis spectrophotometer at 340 nm in 1 min. The inhibitory effect was calculated by the following equation: FAS inhibition (%) = (Acontrol - Asample)/Acontrol × 100%, where Acontrol represented the FAS activity in the control group (phosphate buffer instead of sample solution), Asample represented the FAS activity in the sample groups. The FAS activity was calculated as (A0 - A1)/1 min, in which A0 was the absorbance of the reaction mixture when the FAS was added, and A1 was the absorbance of the reaction mixture after reaction 1 min. Orlistat was used as the positive control.
FAS substrates: 0.1 M potassium phosphate buffer (pH 7.0), 1 mM ethylene-

α-Glucosidase from yeast = assay: α-glucosidase inhibitory activity; format: biochemical; conditions: for α-Glucosidase Inhibition at 0.1 mM: mean ± SD (n = 3), NA = no activity
Method: as §3
S1. Determination of bioactivities. […]
S1.2. Determination of α-glucosidase inhibitory activity. […]
diluted with phosphate buffer (0.1 M, pH 6.8). […]
and 4-nitrophenyl α-D-glucopyranoside (pNPG) solution (50 μL, 5 mM) were mixed and incubated in a 96-well microplate at 37 °C for 5 min. α-Glucosidase from yeast (50 μL, 0.2 U/mL) was added and incubated at 37 °C for another 30 min. Finally, 50 μL of Na2CO3 (1M) was added to terminate the reaction. The absorbance of mixture was measured using a microplate reader at a wavelength 405 nm. […]
following equation: α-glucosidase inhibition (%) = (Acontrol - Asample)/Acontrol × 100%, where Acontrol represented the absorbance of phosphate buffer control without test samples, Asample represented the absorbance of test samples. Acarbose was used as the […]

α-amylase = α-amylase inhibitory activity; format: biochemical; conditions: for α-Amylase Inhibition at 0.1 mM: mean ± SD (n = 3), NA = no activity
Method: as §3, §1
Phosphate buffer (20 mM, pH 6.9, containing 6 mM NaCl) was used as the […]
μL, 1%, w/v) were mixed and incubated in a 96-well microplate at 37 °C for 10 min.
Then, α-amylase solution (50 μL, 0.2 U/mL) was added and the mixture was incubated at 37 °C for an additional 10 min. The reaction was stopped by addition of […]
microplate was immediately heated in 95 °C water bath for 10 min. When the reaction solution cooled to room temperature, all samples were diluted by adding distilled water (50 μL), and then their absorbance was measured using a microplate reader at […]
starch solution) at 540 nm, thus the inhibitory activity was calculated as (Acontrol - Asample)/Acontrol × 100%, in which Asample was the absorbance of the sample and Acontrol was the absorbance of the phosphate buffer control without test samples. Acarbose was used as the positive control.
as §2

[4] = qualitative statement, compared with positive control acarbose

T1 sequence (P12276 whole entry): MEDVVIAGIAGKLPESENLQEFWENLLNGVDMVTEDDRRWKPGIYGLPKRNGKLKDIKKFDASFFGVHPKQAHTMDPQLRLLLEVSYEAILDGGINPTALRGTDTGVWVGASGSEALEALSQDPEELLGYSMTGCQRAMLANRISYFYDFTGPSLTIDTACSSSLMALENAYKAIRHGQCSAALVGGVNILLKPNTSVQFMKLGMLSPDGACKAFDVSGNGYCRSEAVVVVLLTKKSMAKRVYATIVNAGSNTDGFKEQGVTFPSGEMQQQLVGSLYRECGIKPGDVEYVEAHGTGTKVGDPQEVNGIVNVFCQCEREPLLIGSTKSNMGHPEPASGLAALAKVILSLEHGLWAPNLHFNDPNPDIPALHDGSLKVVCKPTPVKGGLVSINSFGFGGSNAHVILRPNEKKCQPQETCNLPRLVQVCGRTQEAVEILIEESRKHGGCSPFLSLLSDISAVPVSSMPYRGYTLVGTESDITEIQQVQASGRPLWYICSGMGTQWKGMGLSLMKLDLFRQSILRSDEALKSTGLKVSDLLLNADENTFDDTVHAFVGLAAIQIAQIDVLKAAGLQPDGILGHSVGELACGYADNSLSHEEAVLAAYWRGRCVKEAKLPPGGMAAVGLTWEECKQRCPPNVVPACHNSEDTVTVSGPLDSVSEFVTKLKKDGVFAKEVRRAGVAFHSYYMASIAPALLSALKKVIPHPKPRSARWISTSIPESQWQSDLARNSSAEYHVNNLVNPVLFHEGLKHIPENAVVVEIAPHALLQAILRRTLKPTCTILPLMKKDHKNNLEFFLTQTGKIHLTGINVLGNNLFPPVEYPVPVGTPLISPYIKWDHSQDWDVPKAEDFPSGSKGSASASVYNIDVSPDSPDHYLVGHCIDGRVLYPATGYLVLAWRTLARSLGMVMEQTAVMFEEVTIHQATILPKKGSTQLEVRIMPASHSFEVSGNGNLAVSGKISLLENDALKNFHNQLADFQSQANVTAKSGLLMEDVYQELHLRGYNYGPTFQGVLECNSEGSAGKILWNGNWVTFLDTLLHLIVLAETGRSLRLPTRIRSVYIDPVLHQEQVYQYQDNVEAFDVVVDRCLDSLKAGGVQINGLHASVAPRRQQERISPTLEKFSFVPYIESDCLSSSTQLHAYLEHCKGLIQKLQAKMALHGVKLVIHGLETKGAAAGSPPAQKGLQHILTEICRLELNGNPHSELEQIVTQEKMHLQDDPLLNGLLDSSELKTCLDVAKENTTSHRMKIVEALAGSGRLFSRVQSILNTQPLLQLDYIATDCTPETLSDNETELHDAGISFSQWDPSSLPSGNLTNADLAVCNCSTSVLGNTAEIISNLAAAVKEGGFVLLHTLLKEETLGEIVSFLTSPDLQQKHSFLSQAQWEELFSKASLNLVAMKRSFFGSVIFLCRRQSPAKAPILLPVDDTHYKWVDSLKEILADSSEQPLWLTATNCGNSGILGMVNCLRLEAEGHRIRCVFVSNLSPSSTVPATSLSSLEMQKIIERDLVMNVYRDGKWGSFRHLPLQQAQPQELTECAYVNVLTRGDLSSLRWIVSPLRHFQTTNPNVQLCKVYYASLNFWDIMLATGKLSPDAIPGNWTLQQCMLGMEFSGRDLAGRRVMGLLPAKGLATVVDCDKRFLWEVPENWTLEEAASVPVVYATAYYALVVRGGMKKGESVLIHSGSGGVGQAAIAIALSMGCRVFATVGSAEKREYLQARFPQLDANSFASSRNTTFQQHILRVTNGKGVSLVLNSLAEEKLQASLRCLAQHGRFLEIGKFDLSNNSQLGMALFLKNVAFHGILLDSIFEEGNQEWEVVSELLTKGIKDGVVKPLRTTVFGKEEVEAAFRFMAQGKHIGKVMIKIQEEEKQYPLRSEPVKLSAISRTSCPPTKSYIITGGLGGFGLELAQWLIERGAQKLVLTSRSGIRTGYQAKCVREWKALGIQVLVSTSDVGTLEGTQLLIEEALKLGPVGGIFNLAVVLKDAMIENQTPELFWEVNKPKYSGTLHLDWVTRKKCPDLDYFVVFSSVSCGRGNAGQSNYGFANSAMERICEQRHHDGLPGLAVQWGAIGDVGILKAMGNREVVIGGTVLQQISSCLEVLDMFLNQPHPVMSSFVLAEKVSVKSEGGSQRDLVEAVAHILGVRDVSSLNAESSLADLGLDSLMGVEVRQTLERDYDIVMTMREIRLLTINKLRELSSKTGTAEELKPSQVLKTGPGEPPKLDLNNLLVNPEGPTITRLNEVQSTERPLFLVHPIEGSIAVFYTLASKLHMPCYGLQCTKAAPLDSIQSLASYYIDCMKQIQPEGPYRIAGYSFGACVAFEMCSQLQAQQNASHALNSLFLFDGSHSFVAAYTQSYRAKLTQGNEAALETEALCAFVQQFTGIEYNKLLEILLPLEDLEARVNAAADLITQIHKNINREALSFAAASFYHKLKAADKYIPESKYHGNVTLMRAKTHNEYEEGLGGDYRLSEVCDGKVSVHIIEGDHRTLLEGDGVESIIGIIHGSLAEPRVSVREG

| IC50 [1] | SMILES | IC50 [2] | IC50 [3] | FAS inhibitory activity (in words) [3] | α-Glucosidase Inhibition at 0.1 mM (α-Glucosidase from yeast) | α-glucosidase inhibitory effect (in words) (α-Glucosidase from yeast; [4]) | α-Amylase Inhibition at 0.1 mM (α-amylase) | α-amylase inhibitory effect (in words) (α-amylase; [4]) |
| --- | --- | --- | --- | --- | --- | --- | --- | --- |
| 19.7 ± 0.23 µM | C=CC(C)(CCC=C(C)C)O[C@@H]1O[C@H](CO)[C@@H](OC(=O)/C=C/c2ccc(O)c(O)c2)[C@H](O[C@@H]2O[C@@H](C)[C@H](O)[C@@H](O)[C@H]2O)[C@H]1O (mixture of isomers) [Compound 1, 3(R)- and 3(S)-linaloyl-(3-O-α-L-rhamnopyranosyl)-(4-O-trans-caffeoyl)-O-β-D-glucopyranoside] | 6.91 ± 0.1 µM |  |  |  |  |  |  |
|  | C=CC(C)(CCC(O)C(=C)C)O[C@@H]1O[C@H](COC(=O)/C=C/c2ccc(O)cc2)[C@@H](O)[C@H](O[C@@H]2O[C@@H](C)[C@H](O)[C@@H](O)[C@H]2O)[C@H]1O (stereo partly drawn) [Compound 3, 3-(3,6-dihydroxy-3,7-dimethyl-octa-1,7-dienyl)-(3-O-α-L-rhamnopyranosyl)-(6-O-trans-p-coumaroyl)-O-β-D-glucopyranoside] | 16 ± 0.69 µM | 21.8 ± 0.38 µM |  | 27.3 ± 0.3 c % |  | 32.5 ± 6.3 b % |  |
|  | C=CC(C)(CCC(O)C(C)(C)O)OC1OC(COC(=O)C=Cc2ccc(O)cc2)C(O)C(OC2OC(C)C(O)C(O)C2O)C1O (centres unmarked) [Compound 4] | 9.66 ± 0.17 µM | > 100 µM |  |  |  | 28.2 ± 3.9 b % |  |
|  | C=CC(C)(C/C=C/C(C)(C)OC)O[C@@H]1O[C@H](COC(=O)/C=C/c2ccc(O)cc2)[C@@H](O)[C@H](O[C@@H]2O[C@@H](C)[C@H](O)[C@@H](O)[C@H]2O)[C@H]1O (stereo partly drawn) [Compound 5, (5E)-3-(3-hydroxy-7-methoxy-3,7-dimethyl-octa-1,5-dienyl)-(3-O-α-L-rhamnopyranosyl)-(6-O-trans-p-coumaroyl)-O-β-D-glucopyranoside] | 6.93 ± 0.01 µM | 23.7 ± 0.45 µM |  | 13.8 ± 2.0 d % |  | 35.6 ± 2.0 b % |  |
|  | C=CC(C)(CCC=C(C)C)O[C@@H]1O[C@H](CO)[C@@H](OC(=O)/C=C/c2ccc(O)cc2)[C@H](O[C@@H]2O[C@@H](C)[C@H](O[C@@H]3O[C@@H](C)[C@H](O)[C@@H](O)[C@H]3O)[C@@H](O)[C@H]2O)[C@H]1O (stereo partly drawn) [Compound 6, linaloyl-[3-O-α-L-rhamnopyranosyl-(1→4)-α-L-rhamnopyranosyl]-(4-O-trans-p-coumaroyl)-O-β-D-glucopyranoside] | 11.3 ± 0.16 µM | 4.78 ± 0.14 µM | strong FAS inhibitory activity | 12.0 ± 1.7 d % |  | 26.1 ± 3.0 b % |  |
|  | C=CC(C)(CCC=C(C)C)O[C@@H]1O[C@H](CO)[C@@H](OC(=O)/C=C\c2ccc(O)cc2)[C@H](O[C@@H]2O[C@@H](C)[C@H](O[C@@H]3O[C@@H](C)[C@H](O)[C@@H](O)[C@H]3O)[C@@H](O)[C@H]2O)[C@H]1O (stereo partly drawn) [Compound 7, linaloyl-[3-O-α-L-rhamnopyranosyl-(1→4)-α-L-rhamnopyranosyl]-(4-O-cis-p-coumaroyl)-O-β-D-glucopyranoside] | 20.2 ± 0.33 µM | > 100 µM |  |  |  |  |  |
|  | COC(C)(C)C=CCC(C)=CCOC1OC(COC(=O)C=Cc2ccc(O)cc2)C(O)C(OC2OC(C)C(O)C(O)C2O)C1O (centres unmarked) [Compound 8] | 19.5 ± 0.46 µM | 25.8 ± 0.47 µM |  | 24.7 ± 3.5 c % |  | 31.4 ± 1.9 b % |  |
|  | C=C(C)C(O)CCC(C)=CCOC1OC(CO)C(OC(=O)C=Cc2ccc(O)cc2)C(OC2OC(C)C(O)C(O)C2O)C1O (centres unmarked) [Compound 9] | 18.7 ± 0.47 µM | 21.7 ± 0.46 µM |  | 12.4 ± 5.6 d % |  | 29.2 ± 8.4 b % |  |
|  | CC(C)=CCC/C(C)=C/CO[C@@H]1O[C@H](CO)[C@@H](OC(=O)/C=C/c2ccc(O)cc2)[C@H](O[C@@H]2O[C@@H](C)[C@H](O)[C@@H](O)[C@H]2O)[C@H]1O [Compound 10, ligurobustoside C] | 15.1 ± 0.1 µM | 4.68 ± 0.16 µM | strong FAS inhibitory activity | 28.7 ± 2.1 c % |  |  |  |
|  | CC(=CCOC1OC(CO)C(OC(=O)C=Cc2ccc(O)cc2)C(OC2OC(C)C(O)C(O)C2O)C1O)CCC(O)C(C)(C)O (centres unmarked) [Compound 11] | 7.92 ± 0.23 µM | 61.74 ± 0.45 µM |  |  |  | 31.3 ± 1.3 b % |  |
| 13.66 ± 0.13 µM | O=C1O[C@H]([C@@H](O)CO)C(O)=C1O [L-(+)-ascorbic acid, reference compound] |  |  |  |  |  |  |  |

| SMILES | IC50 [1] | IC50 [2] | IC50 [3] | FAS inhibitory activity (in words) [3] | α-Glucosidase Inhibition at 0.1 mM (α-Glucosidase from yeast) | α-glucosidase inhibitory effect (in words) (α-Glucosidase from yeast; [4]) | α-Amylase Inhibition at 0.1 mM (α-amylase) | α-amylase inhibitory effect (in words) (α-amylase; [4]) |
| --- | --- | --- | --- | --- | --- | --- | --- | --- |
| C=CC(C)(CCC=C(C)C)O[C@@H]1O[C@H](COC(=O)/C=C/c2ccc(O)cc2)[C@@H](O)[C@H](O[C@@H]2O[C@@H](C)[C@H](O)[C@@H](O)[C@H]2O)[C@H]1O (mixture of isomers) [Compound 2, 3(R)- and 3(S)-linaloyl-(3-O-α-L-rhamnopyranosyl)-(6-O-trans-p-coumaroyl)-O-β-D-glucopyranoside] | > 250 µM | 9.41 ± 0.22 µM | 2.36 ± 0.1 µM | strong FAS inhibitory activity | 48.1 ± 4.3 b % | weaker α-glucosidase inhibitory effect than the positive control acarbose; also recorded: moderate | 31.5 ± 0.5 b % | moderate |
